{"source": "patent US5877210A", "about": "“Phosphotyrosine phosphatase inhibitors or phosphotyrosine kinase activators for controlling cellular proliferation” (priority 1995, dated 1999)", "key": {"[1]": {"system": "BCL1", "experiment": "[3H]thymidine incorporation assay", "format": "cell-based, murine", "settings": "for [3H]cpm incorporation: seven days", "description": "For each cell type, the cells were passaged uniformly for all drug doses given during the seven-day period. The cells were then pulsed for six hours with [^3 H]thymidine. The extent of DNA synthesis was then determined by counting the radioactivity incorporated into the cells.\nFor assays of cellular proliferation, cells were grown five days in the presence of the indicated concentrations of BMLOV, pulsed 6 hr with [^3 H]-thymidine (New England Nuclear, Boston, Mass.), and counted in a liquid scintillation counter. Human peripheral blood lymphocytes (PBL) from normal volunteers were isolated from lymphocyte separation medium (Litton Bionetics, Kensington, Md.) by density gradient centrifugation. Monocytes were depleted from PBL by two rounds of plastic absorption for 30 minutes at 37° C. B cells were enriched for by negative selection using complement plus monoclonal antibodies to CD2, CD3, CD4, and CD8 for complement depletion. Clonogenic assays of colony formation in methylcellulose medium were performed as previously described (F. M. Uckun et al. (1992), supra)."}, "[2]": {"system": "normal peripheral blood T cells"}, "[3]": {"system": "PLCγ2", "experiment": "PLCγ2 tyrosine phosphorylation in Ramos B cells", "format": "cell-based, human", "settings": "16 h, dose-dependent, no antigen receptor stimulation", "description": "Syk is essential for the tyrosine phosphorylation of PLCγ2 that leads to Ca^2+ signaling in B cells following antigen receptor stimulation (M. Takata et al., EMBO J. 13:1341-1349 (1994)). […] In the experiments shown in FIG. 24, Ramos B cells were treated 16 h with the indicated concentrations of BMLOV and then stimulated for 2 min with α-μ. Antibody binding in immunoblots was detected by ECL. […] The extent of tyrosine phosphorylation of PLCγ2 induced by BMLOV was substantially more than that observed following a maximal sIgM stimulation, and no additional tyrosine phosphorylation of PLCγ2 could be induced by sIgM stimulation of BMLOV treated cells."}, "[4]": {"system": "peripheral blood lymphocytes (PBL)", "experiment": "PBL growth driven by antibody/cytokine stimulation", "format": "cell-based, human"}, "[5]": {"target": "T1, PTP1B (Homo sapiens, UniProt P18031)", "T1 construct": "purchased Upstate Biotechnology, Lake Placid, N.Y", "T1 sequence (P18031 1-435)": "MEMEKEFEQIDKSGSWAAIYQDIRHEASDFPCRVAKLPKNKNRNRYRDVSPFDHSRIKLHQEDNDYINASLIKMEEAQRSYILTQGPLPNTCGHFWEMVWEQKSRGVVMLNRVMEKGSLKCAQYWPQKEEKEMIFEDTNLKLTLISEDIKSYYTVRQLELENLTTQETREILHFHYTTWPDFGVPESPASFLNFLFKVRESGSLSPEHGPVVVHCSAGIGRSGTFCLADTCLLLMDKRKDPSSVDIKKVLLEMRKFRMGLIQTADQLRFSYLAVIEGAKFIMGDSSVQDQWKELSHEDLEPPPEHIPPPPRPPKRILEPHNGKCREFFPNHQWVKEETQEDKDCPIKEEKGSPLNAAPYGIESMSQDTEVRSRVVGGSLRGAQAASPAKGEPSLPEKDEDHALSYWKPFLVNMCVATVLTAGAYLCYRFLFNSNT", "experiment": "Phosphotyrosine phosphatase PTP1B inhibition", "format": "biochemical"}, "[6]": {"system": "normal peripheral B cells", "settings": "human, 120 h, 25 µM"}, "[7]": {"system": "i.p. M109 murine lung carcinoma", "experiment": "In vivo antitumor test, M109", "settings": "for Max. % T/C: qd 1→5, ip", "description": "The compound pV(phen) was tested for its antitumor activity in vivo. A summary of the antitumor test results is shown below in Table 13. In the i.p. M109 murine lung carcinoma model (Experiment No. 330; Table 13), consecutive daily i.p. injections each day from day 1 to 5 were effective in achieving an active result. […] A maximum T/C of 143%, consistent with the first result, was obtained."}, "[8]": {"system": "REH, Ramos, CEM, Jurkat, HL-60, and THP-1", "experiment": "[3H]thymidine incorporation, cell line panel (FIG. 17)", "format": "cell-based", "settings": "5 μM pV(phen), 5 days", "description": "Similar results are shown in FIG. 17 for the cell lines REH, Ramos, CEM, Jurkat, HL-60, and THP-1. Cells were treated 5 days with the amount of inhibitor indicated and [^3 H]-thymidine incorporation was then measured to determine proliferation. The percent inhibition was calculated relative to untreated controls. Results are shown for three concentrations of BMLOV (5 μM, 10 μM, and 25 μM and 5 μM of pV(phen))."}, "[9]": {"system": "L1210 murine T cell leukemia cells", "experiment": "Apoptosis: DNA fragmentation on agarose gel", "format": "cell-based", "settings": "pV(phen), FIG. 18", "description": "For these experiments, cell samples (2×10^6 cells) were centrifuged at 200× g, the media removed by aspiration and the cell pellets stored at -70° C. until processing. Cell pellets were resuspended in 300 μl digestion buffer (100 mM NaCl, 10 mM Tris-HCl, pH 8.0, 25 mM EDTA, 0.5% SDS, 0.1 mg/ml protease K) and incubated for 12 hours at 50° C. DNase-free ribonuclease (5 μg) in 200 μl TE buffer (10 mM Tris-HCl, pH 7.5, 1 mM EDTA) was added to each sample followed by incubation for 2 hours at 37° C. DNA was then extracted once with phenol:chloroform, once with chloroform and then precipitated with 0.5 volumes of ammonium acetate and 2 volumes of ethanol at -70° C. for 12 hours. The precipitated DNA was resuspended in 200 μl TE buffer and quantitated by absorbance at 260 nanometers. The DNA (15 μg) was applied to a 1.3% agarose gel in TBE buffer (89 mM Tris base, 89 mM boric acid, 2 mM EDTA) resolved at 20 mA constant current and the DNA was visualized by staining with ethidium bromide. Fragmented DNA due to apoptosis appeared as a ladder of bands on the gel.\nL1210 murine T cell leukemia cells were treated with the indicated concentrations of pV(phen) for the indicated times and the DNA was examined by gel electrophoresis as in Example 3."}, "[10]": {"system": "i.p. B16 murine melanoma", "format": "in vivo", "description": "The cumulative dose MTD of 54 mg/kg was similar to the 60 mg/kg cumulative MTD observed in the last M109 experiment."}, "[11]": {"settings": "peripheral blood t cells, 24 h, 25 µM"}}, "note": "Like-named read-outs stand apart in the source and are kept apart here.", "data": [{"smiles": "Cc1occc(=O)c1[O-].Cc1occc(=O)c1[O-].[O]=[V+2]", "note": "[BMLOV, Bis(maltolato)oxovanadium (IV)]", "values": [{"measurement": "[3H]cpm incorporation", "setting": "[1]; 1 μM BMLOV", "result": 265036, "unit": "cpm"}, {"measurement": "[3H]cpm incorporation", "setting": "[1]; 5 μM BMLOV", "result": 226714, "unit": "cpm"}, {"measurement": "[3H]cpm incorporation", "setting": "[1]; 10 μM BMLOV", "result": 55396, "unit": "cpm"}, {"measurement": "[3H]cpm incorporation", "setting": "[1]; 25 μM BMLOV", "result": 195, "unit": "cpm"}, {"measurement": "sensitivity of proliferation to BMLOV, in words", "setting": "[1]; 25 μM, 5 or 7 days", "result": "highly sensitive"}, {"measurement": "IL-2Rα expression without anti-CD3 stimulation", "setting": "[2]; BMLOV alone or in combination with IL-2", "result": "did not induce IL-2Rα expression"}, {"measurement": "enhancement of IL-2Rα expression over anti-CD3 and IL-2", "setting": "[2]; [11]", "result": 3, "unit": "fold"}, {"measurement": "increase of IL-2Rα expression over anti-CD3 stimulation alone", "setting": "[2]; [11]", "result": 1.7, "unit": "fold"}, {"measurement": "tyrosine phosphorylation of PLCγ2", "setting": "[3]", "result": "strongly induced the tyrosine phosphorylation of PLCγ2"}, {"measurement": "PBL growth driven by anti-CD28 antibody plus IL-2", "setting": "[4]; 1 μM BMLOV", "result": "markedly inhibited"}, {"measurement": "PBL growth driven by anti-CD3 antibody plus anti-CD28 antibody", "setting": "[4]; 10 μM BMLOV", "result": "strongly inhibited"}, {"measurement": "IC50", "setting": "[5]", "result": "~25", "unit": "nM"}, {"measurement": "IC50", "setting": "[5]; Table 1, phosphorylated myelin basic protein substrate", "result": 26, "unit": "nM"}, {"measurement": "IC50", "setting": "[5]; Table 8", "result": 26, "unit": "nM"}, {"measurement": "viable cells", "setting": "[6]", "result": 27, "unit": "%"}]}, {"smiles": "[Na+].[O]=[V-]12([O][O]1)[O][O]2.c1cnc2c(c1)ccc1cccnc12", "note": "[pV(phen), sodium (1,10-phenanthroline) oxodiperoxovanadium (V)]", "values": [{"measurement": "Max. % T/C", "setting": "[7]; Expt. 330, 12 mg/kg/inj", "result": 144, "unit": "%"}, {"measurement": "Max. % T/C", "setting": "[7]; Expt. 333, 12 mg/kg/inj (MTD reached)", "result": 143, "unit": "%"}, {"measurement": "cumulative MTD", "setting": "[7]; last M109 experiment", "result": 60, "unit": "mg/kg"}, {"measurement": "inhibition of proliferation, in words", "setting": "[8]", "result": "inhibits all cell types studied"}, {"measurement": "induction of apoptosis (DNA fragmentation)", "setting": "[9]", "result": "fragmentation of DNA demonstrates apoptosis"}, {"measurement": "Max. % T/C", "setting": "[10]; Expt. 799, 6 mg/kg/inj (MTD reached), qd 1→9, ip", "result": 152, "unit": "%"}, {"measurement": "maximum tolerated dose (MTD)", "setting": "[10]; mouse, in vivo, ip", "result": 6, "unit": "mg/kg per injection"}]}]}
